Patent US20080009418A1, “Selective Inhibitors” (Alchemia LTD., priority 2004, published 2008)

Tests used:
Human δ-opioid (DOP) = molecular target: T1, Human δ-opioid (DOP) (Homo sapiens, UniProt P41143); experiment: Radioligand binding, human δ-opioid (DOP) membranes, FlashPlate, [3H]-Bremazocine; settings: compound at 10 μM; [3H]-Bremazocine
T1 construct: purchased Perkin Elmer Biosignal
Procedure, shortened: (§1)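 Cloned human receptor membranes were coated onto FlashPlate wells and incubated with radioligand and compound (added from a 0.5 mM DMSO daughter plate) for 1 hour at room temperature in the dark. Scintillation counting gave percent inhibition, with DMSO defining total and reference ligand defining non-specific binding.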

Human Melanocortin (MC4) = molecular target: T2, Human Melanocortin (MC4) (Homo sapiens, UniProt P32245); experiment: Radioligand binding, human melanocortin MC4 membranes, FlashPlate, [125I]-NDP-αMSH; settings: compound at 10 μM; [125I]-NDP-αMSH
T2 construct: purchased Perkin Elmer Biosignal
T2 sequence (P32245 whole entry): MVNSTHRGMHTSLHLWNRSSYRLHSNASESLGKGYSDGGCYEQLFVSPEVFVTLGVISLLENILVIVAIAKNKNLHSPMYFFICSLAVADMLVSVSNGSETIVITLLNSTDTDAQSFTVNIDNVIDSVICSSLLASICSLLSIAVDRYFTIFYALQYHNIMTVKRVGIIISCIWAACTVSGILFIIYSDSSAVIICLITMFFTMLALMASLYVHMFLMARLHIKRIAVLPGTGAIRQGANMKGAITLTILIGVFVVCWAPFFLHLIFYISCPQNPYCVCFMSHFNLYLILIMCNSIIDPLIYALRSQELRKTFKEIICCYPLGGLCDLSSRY
Procedure, shortened: as §1

[1] = molecular target: T3, Human neuropeptide Y (NPY-Y1) (Homo sapiens, UniProt P25929); experiment: Radioligand binding, human neuropeptide Y NPY-Y1 membranes, FlashPlate, [125I]-PYY; settings: compound at 10 μM; [125I]-PYY
T3 construct: purchased Perkin Elmer Biosignal
T3 sequence (P25929 1-384): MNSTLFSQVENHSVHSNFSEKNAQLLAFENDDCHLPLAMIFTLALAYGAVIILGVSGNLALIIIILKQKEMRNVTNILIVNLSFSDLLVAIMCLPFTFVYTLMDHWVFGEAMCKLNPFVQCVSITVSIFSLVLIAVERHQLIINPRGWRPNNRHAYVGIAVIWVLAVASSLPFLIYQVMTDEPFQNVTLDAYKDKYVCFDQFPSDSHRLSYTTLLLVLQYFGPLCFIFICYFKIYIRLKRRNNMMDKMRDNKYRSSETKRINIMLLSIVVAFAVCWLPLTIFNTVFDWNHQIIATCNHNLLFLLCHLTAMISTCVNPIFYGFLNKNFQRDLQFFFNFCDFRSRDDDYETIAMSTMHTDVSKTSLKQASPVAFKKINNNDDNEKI
Procedure, shortened: as §1

Human melanocortin (MC5) = molecular target: T4, Human melanocortin (MC5) (Homo sapiens, UniProt P33032); experiment: Radioligand binding, human melanocortin MC5 membranes, FlashPlate, [125I]-NDP-αMSH; settings: compound at 10 μM; [125I]-NDP-αMSH
T4 construct: purchased Perkin Elmer Biosignal
T4 sequence (P33032 whole entry): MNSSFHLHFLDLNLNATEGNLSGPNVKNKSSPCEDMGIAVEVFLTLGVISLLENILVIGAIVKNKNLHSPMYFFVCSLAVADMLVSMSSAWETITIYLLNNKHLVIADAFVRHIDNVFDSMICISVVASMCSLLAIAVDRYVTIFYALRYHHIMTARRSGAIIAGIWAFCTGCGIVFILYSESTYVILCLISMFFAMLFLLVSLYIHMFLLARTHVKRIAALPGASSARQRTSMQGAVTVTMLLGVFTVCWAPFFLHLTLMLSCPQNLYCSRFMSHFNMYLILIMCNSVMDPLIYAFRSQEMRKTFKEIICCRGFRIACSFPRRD
Procedure, shortened: as §1

Human κ-Opioid (KOP) = molecular target: T5, Human κ-Opioid (KOP) (Homo sapiens, UniProt P41145); experiment: Radioligand binding, human κ-opioid (KOP) membranes, filtration, [3H]-Diprenorphine; settings: compound at 10 μM; [3H]-Diprenorphine
T5 construct: purchased Perkin Elmer Biosignal
T5 sequence (P41145 whole entry): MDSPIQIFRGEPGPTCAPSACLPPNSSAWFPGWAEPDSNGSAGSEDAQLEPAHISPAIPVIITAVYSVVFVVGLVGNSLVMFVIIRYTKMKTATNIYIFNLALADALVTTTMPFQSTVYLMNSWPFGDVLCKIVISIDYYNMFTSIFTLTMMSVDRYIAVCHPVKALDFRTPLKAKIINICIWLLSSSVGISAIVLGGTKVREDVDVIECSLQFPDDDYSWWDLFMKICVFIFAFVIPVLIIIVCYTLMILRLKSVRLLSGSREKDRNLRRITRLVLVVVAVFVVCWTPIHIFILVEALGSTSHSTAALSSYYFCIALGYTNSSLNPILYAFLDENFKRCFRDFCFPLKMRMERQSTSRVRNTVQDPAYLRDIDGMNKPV
Procedure, shortened: (§2)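 Filtration binding on cloned human receptor membranes (1 Unit/well), [125I]-Substance P for NK1 and [3H]-Diprenorphine for KOP, 1 h at room temperature. Filters PEI-presoaked, washed with cold 50 mM Tris-HCl pH 7.4, counted by scintillation; percent inhibition calculated, reference ligand defining non-specific binding.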

[2] = molecular target: T6, Human melanin-concentrating hormone (MCH1) (Homo sapiens, UniProt Q99705); experiment: Radioligand binding, human melanin-concentrating hormone MCH1 membranes, FlashPlate, [125I]-S36057; settings: compound at 10 μM; [125I]-S36057
T6 construct: purchased Perkin Elmer Biosignal
T6 sequence (Q99705 whole entry): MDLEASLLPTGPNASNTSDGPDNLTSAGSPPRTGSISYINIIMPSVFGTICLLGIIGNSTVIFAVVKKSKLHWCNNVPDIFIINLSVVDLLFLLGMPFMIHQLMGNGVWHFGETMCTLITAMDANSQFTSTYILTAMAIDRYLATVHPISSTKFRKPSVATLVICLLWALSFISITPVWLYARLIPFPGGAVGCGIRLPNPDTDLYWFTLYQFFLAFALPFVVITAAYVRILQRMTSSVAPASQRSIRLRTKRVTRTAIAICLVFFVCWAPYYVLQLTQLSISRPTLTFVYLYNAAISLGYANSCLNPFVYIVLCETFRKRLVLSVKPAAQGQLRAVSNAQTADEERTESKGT
Procedure, shortened: as §1

Human neurokinin (NK1) = molecular target: T7, Human neurokinin (NK1) (Homo sapiens, UniProt P25103); experiment: Radioligand binding, human neurokinin NK1 membranes, filtration, [125I]-Substance P; settings: compound at 10 μM; [125I]-Substance P
T7 construct: purchased Perkin Elmer Biosignal
T7 sequence (P25103 whole entry): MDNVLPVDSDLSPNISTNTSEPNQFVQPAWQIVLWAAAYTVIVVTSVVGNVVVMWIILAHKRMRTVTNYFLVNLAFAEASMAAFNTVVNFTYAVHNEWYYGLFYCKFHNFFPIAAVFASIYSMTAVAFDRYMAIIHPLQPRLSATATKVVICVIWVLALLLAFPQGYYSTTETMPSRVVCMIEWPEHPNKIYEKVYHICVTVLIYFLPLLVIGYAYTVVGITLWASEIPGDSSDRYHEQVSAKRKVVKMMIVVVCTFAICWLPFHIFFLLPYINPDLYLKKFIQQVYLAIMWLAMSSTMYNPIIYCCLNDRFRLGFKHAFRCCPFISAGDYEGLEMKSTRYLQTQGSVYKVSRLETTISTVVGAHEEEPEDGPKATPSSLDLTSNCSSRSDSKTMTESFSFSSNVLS
Procedure, shortened: as §2

Human μ-opioid (MOP) = molecular target: T8, Human μ-opioid (MOP) (Homo sapiens, UniProt P35372); experiment: Radioligand binding, human μ-opioid (MOP) membranes, FlashPlate, [3H]-Naloxone; settings: compound at 10 μM; [3H]-Naloxone
T8 construct: purchased Perkin Elmer Biosignal
T8 sequence (P35372 whole entry): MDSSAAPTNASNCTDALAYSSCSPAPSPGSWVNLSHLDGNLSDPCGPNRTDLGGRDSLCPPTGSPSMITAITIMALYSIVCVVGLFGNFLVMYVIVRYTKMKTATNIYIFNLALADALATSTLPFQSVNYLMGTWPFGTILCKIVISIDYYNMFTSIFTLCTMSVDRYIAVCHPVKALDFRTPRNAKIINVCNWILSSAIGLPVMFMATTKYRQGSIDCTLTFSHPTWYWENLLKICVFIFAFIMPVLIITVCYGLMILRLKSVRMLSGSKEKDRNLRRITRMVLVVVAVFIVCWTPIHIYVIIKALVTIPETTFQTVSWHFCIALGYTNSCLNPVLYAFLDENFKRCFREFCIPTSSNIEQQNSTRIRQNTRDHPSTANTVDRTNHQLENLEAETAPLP
Procedure, shortened: as §1

Human Melanocortin (MC3) = molecular target: T9, Human Melanocortin (MC3) (Homo sapiens, UniProt P41968); experiment: Radioligand binding, human melanocortin MC3 membranes, FlashPlate, [125I]-NDP-αMSH; settings: compound at 10 μM; [125I]-NDP-αMSH
T9 construct: purchased Perkin Elmer Biosignal
T9 sequence (P41968 whole entry): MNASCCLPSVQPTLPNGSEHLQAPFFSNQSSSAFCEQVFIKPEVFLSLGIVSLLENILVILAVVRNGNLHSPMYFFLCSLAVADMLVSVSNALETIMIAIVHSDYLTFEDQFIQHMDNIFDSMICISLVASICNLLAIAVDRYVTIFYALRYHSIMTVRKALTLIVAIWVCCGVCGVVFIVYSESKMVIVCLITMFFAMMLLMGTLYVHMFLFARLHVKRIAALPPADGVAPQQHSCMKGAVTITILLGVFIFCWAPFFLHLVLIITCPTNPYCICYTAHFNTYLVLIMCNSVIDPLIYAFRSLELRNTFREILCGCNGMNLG
Procedure, shortened: as §1

Human opioid (ORL1) = molecular target: T10, Human opioid (ORL1) (Homo sapiens, UniProt P41146); experiment: Radioligand binding, human opioid ORL1 membranes, FlashPlate, [125I]-Nociceptin; settings: compound at 10 μM; [125I]-Nociceptin
T10 construct: purchased Perkin Elmer Biosignal
T10 sequence (P41146 whole entry): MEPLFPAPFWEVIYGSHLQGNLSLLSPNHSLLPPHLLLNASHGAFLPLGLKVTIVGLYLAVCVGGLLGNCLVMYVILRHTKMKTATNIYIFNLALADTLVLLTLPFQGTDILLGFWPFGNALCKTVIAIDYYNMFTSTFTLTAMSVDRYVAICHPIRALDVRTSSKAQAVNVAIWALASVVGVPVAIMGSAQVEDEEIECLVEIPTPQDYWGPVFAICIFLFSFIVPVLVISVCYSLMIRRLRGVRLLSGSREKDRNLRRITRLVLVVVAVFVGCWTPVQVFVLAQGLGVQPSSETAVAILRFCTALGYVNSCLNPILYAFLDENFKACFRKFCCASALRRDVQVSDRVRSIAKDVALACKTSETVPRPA
Procedure, shortened: as §1

Mouse urotensin (mUR2) = molecular target: T11, Mouse urotensin (mUR2) (Mus musculus, UniProt Q8VIH9); experiment: Radioligand binding, mouse urotensin mUR2 membranes, FlashPlate, [125I]-Urotensin II; settings: compound at 10 μM; [125I]-Urotensin II
T11 construct: purchased Perkin Elmer Biosignal
T11 sequence (Q8VIH9 1-385): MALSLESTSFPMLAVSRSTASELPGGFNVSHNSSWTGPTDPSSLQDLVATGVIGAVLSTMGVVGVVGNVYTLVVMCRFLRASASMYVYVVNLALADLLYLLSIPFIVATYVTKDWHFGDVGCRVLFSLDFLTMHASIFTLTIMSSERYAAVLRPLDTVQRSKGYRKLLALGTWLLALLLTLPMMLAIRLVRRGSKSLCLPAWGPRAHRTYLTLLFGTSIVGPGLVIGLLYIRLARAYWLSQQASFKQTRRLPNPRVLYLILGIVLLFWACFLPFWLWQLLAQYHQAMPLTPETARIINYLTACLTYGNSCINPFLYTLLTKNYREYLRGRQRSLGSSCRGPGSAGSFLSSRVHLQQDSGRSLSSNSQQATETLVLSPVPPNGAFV
Procedure, shortened: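 Cloned mouse urotensin (mUR2) receptor membranes from Perkin Elmer Biosignal were immobilized in FlashPlate microplates using a proprietary coating. Each well got 19.5 μl buffer, then 0.5 μl of DMSO, reference ligand, or compound. Adding 5 μl of [125I]-Urotensin II, diluted to 5× final concentration in binding buffer, started binding. Plates were sealed with TopSeal-A and incubated 1 hour at room temperature in the dark. Wells were counted for 30 seconds each on a TopCount after a 60-second delay, and percentage inhibition was calculated.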

T1 sequence (P41143 whole entry): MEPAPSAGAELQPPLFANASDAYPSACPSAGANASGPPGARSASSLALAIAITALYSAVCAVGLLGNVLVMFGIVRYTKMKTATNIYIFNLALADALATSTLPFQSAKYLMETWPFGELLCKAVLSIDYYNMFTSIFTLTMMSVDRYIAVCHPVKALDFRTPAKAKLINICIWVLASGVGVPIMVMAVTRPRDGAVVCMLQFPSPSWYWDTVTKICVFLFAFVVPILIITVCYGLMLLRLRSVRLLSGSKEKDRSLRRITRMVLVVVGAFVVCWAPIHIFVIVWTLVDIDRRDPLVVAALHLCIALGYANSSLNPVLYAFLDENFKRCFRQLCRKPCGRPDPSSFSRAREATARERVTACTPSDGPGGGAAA

SMILES	A1: inhibition of radioligand binding, human δ-opioid (DOP) (Human δ-opioid (DOP))	A4: inhibition of radioligand binding, human melanocortin (MC4) (Human Melanocortin (MC4))	A9: inhibition of radioligand binding, human neuropeptide Y (NPY-Y1) [1]	A5: inhibition of radioligand binding, human melanocortin (MC5) (Human melanocortin (MC5))	A2: inhibition of radioligand binding, human κ-opioid (KOP) (Human κ-Opioid (KOP))	A6: inhibition of radioligand binding, human melanin-concentrating hormone (MCH1) [2]	A8: inhibition of radioligand binding, human neurokinin (NK1) (Human neurokinin (NK1))	A7: inhibition of radioligand binding, human μ-opioid (MOP) (Human μ-opioid (MOP))	A3: inhibition of radioligand binding, human melanocortin (MC3) (Human Melanocortin (MC3))	A10: inhibition of radioligand binding, human opioid (ORL1) (Human opioid (ORL1))	A11: inhibition of radioligand binding, mouse urotensin (mUR2) (Mouse urotensin (mUR2))
NCCC(=O)NC1C(OCc2ccccc2)OC(COCc2ccc(Cl)cc2)C(O)C1OCc1ccccc1 (stereo not shown) [compound 371]	− (“−” indicates less than 50% inhibition at 10 μM)	− (“−” indicates less than 50% inhibition at 10 μM)	− (“−” indicates less than 50% inhibition at 10 μM)	− (“−” indicates less than 50% inhibition at 10 μM)	− (“−” indicates less than 50% inhibition at 10 μM)	− (“−” indicates less than 50% inhibition at 10 μM)	+ (“+” indicates greater than 50% inhibition at 10 μM)	− (“−” indicates less than 50% inhibition at 10 μM)	− (“−” indicates less than 50% inhibition at 10 μM)	− (“−” indicates less than 50% inhibition at 10 μM)	− (“−” indicates less than 50% inhibition at 10 μM)
NCCCC(=O)NC1C(OCc2ccccc2)OC(COCc2ccc3ccccc3c2)C(O)C1OCc1ccc(Cl)cc1 (stereo not shown) [compound 372]	− (“−” indicates less than 50% inhibition at 10 μM)	+ (“+” indicates greater than 50% inhibition at 10 μM)	− (“−” indicates less than 50% inhibition at 10 μM)	+ (“+” indicates greater than 50% inhibition at 10 μM)	− (“−” indicates less than 50% inhibition at 10 μM)	− (“−” indicates less than 50% inhibition at 10 μM)	+ (“+” indicates greater than 50% inhibition at 10 μM)	− (“−” indicates less than 50% inhibition at 10 μM)	− (“−” indicates less than 50% inhibition at 10 μM)	− (“−” indicates less than 50% inhibition at 10 μM)	− (“−” indicates less than 50% inhibition at 10 μM)
NCCCC(=O)NC1C(OCc2ccccc2)OC(COCc2ccccc2)C(O)C1OCc1ccc(Cl)cc1 (stereo not shown) [compound 373]	− (“−” indicates less than 50% inhibition at 10 μM)	+ (“+” indicates greater than 50% inhibition at 10 μM)	− (“−” indicates less than 50% inhibition at 10 μM)	+ (“+” indicates greater than 50% inhibition at 10 μM)	− (“−” indicates less than 50% inhibition at 10 μM)	− (“−” indicates less than 50% inhibition at 10 μM)	+ (“+” indicates greater than 50% inhibition at 10 μM)	− (“−” indicates less than 50% inhibition at 10 μM)	− (“−” indicates less than 50% inhibition at 10 μM)	− (“−” indicates less than 50% inhibition at 10 μM)	− (“−” indicates less than 50% inhibition at 10 μM)
NCCCC(=O)NC1C(OCc2ccccc2)OC(COCc2ccc(Cl)cc2)C(O)C1OCc1ccc(Cl)cc1 (stereo not shown) [compound 374]	− (“−” indicates less than 50% inhibition at 10 μM)	+ (“+” indicates greater than 50% inhibition at 10 μM)	− (“−” indicates less than 50% inhibition at 10 μM)	+ (“+” indicates greater than 50% inhibition at 10 μM)	− (“−” indicates less than 50% inhibition at 10 μM)	− (“−” indicates less than 50% inhibition at 10 μM)	+ (“+” indicates greater than 50% inhibition at 10 μM)	− (“−” indicates less than 50% inhibition at 10 μM)	− (“−” indicates less than 50% inhibition at 10 μM)	− (“−” indicates less than 50% inhibition at 10 μM)	− (“−” indicates less than 50% inhibition at 10 μM)
NCCCC(=O)NC1C(OCc2ccccc2)OC(COCc2ccc3ccccc3c2)C(O)C1OCc1ccc2ccccc2c1 (stereo not shown) [compound 375]	− (“−” indicates less than 50% inhibition at 10 μM)	+ (“+” indicates greater than 50% inhibition at 10 μM)	− (“−” indicates less than 50% inhibition at 10 μM)	+ (“+” indicates greater than 50% inhibition at 10 μM)	− (“−” indicates less than 50% inhibition at 10 μM)	− (“−” indicates less than 50% inhibition at 10 μM)	+ (“+” indicates greater than 50% inhibition at 10 μM)	− (“−” indicates less than 50% inhibition at 10 μM)	− (“−” indicates less than 50% inhibition at 10 μM)	− (“−” indicates less than 50% inhibition at 10 μM)	− (“−” indicates less than 50% inhibition at 10 μM)
